Assay results taken from ChEMBL document CHEMBL4033623, “Synthesis of xanthone derivatives and studies on the inhibition against cancer cells growth and synergistic combinations of them” (Eur J Med Chem, 2017).
The source made the active and inactive calls. No cut-off for these calls is given here.

Assays:
[1] = test system: MDA-MB-231; test: Induction of apoptosis in human MDA-MB-231 cells assessed as late apoptotic cells at 96 uM after 48 hrs by Annexin-V/FITC/PI staining based flow cytometry (reference value: 1.18 %); assay type: functional
[2] = test system: MDA-MB-231; test: Induction of apoptosis in human MDA-MB-231 cells assessed as increase in cleaved caspase-3 expression at 24 to 96 uM after 48 hrs by Western blot analysis; assay type: functional, cell-based
[3] = test system: MDA-MB-231; test: Induction of apoptosis in human MDA-MB-231 cells after 48 hrs by Annexin-V/FITC/PI staining based flow cytometry; assay type: functional, cell-based
[4] = test system: MDA-MB-231; test: Induction of apoptosis in human MDA-MB-231 cells assessed as increase in cleaved PARP level at 24 to 96 uM after 48 hrs by Western blot analysis; assay type: functional, cell-based
[5] = test system: MDA-MB-231; test: Induction of apoptosis in human MDA-MB-231 cells assessed as late apoptotic cells at 48 uM after 48 hrs by Annexin-V/FITC/PI staining based flow cytometry (reference value: 1.18 %); assay type: functional
[6] = test system: MDA-MB-231; test: Induction of apoptosis in human MDA-MB-231 cells assessed as necrotic cells at 24 uM after 48 hrs by Annexin-V/FITC/PI staining based flow cytometry (reference value: 10.01 %); assay type: functional
[7] = test system: MDA-MB-231; test: Induction of apoptosis in human MDA-MB-231 cells assessed as early apoptotic cells at 48 uM after 48 hrs by Annexin-V/FITC/PI staining based flow cytometry (reference value: 0.03 %); assay type: functional
[8] = test system: COLO 320; test: Antiproliferative activity against human COLO320 cells after 48 hrs by CCK8 assay; assay type: functional, cell-based; details: COLO 320, 48 h
[9] = test system: MDA-MB-231; test: Induction of apoptosis in human MDA-MB-231 cells assessed as early apoptotic cells at 24 uM after 48 hrs by Annexin-V/FITC/PI staining based flow cytometry (reference value: 0.03 %); assay type: functional
[10] = test system: MDA-MB-231; test: Induction of apoptosis in human MDA-MB-231 cells assessed as viable cells at 96 uM after 48 hrs by Annexin-V/FITC/PI staining based flow cytometry (reference value: 88.78 %); assay type: functional; details: MDA-MB-231, 48 h, read-out: Activity
[11] = test system: MDA-MB-231; test: Decrease in caspase-3 level in human MDA-MB-231 cells at 24 to 96 uM after 48 hrs by Western blot analysis; assay type: functional, cell-based
[12] = test system: MDA-MB-231; test: Induction of apoptosis in human MDA-MB-231 cells assessed as necrotic cells at 48 uM after 48 hrs by Annexin-V/FITC/PI staining based flow cytometry (reference value: 10.01 %); assay type: functional
[13] = test system: MDA-MB-231; test: Induction of apoptosis in human MDA-MB-231 cells assessed as late apoptotic cells at 24 uM after 48 hrs by Annexin-V/FITC/PI staining based flow cytometry (reference value: 1.18 %); assay type: functional
[14] = test system: MDA-MB-231; test: Induction of apoptosis in human MDA-MB-231 cells assessed as viable cells at 24 uM after 48 hrs by Annexin-V/FITC/PI staining based flow cytometry (reference value: 88.78 %); assay type: functional; details: MDA-MB-231, 48 h, read-out: Activity
[15] = test system: MDA-MB-231; test: Decrease in MDM2 level in human MDA-MB-231 cells at 24 to 96 uM after 48 hrs by Western blot analysis; assay type: functional, cell-based
[16] = test system: MCF7; test: Antiproliferative activity against human MCF7 cells after 48 hrs by CCK8 assay; assay type: functional, cell-based; details: MCF7, 48 h
[17] = test system: MDA-MB-231; test: Induction of apoptosis in human MDA-MB-231 cells assessed as necrotic cells at 96 uM after 48 hrs by Annexin-V/FITC/PI staining based flow cytometry (reference value: 10.01 %); assay type: functional
[18] = test system: MDA-MB-231; test: Increase in p53 level in human MDA-MB-231 cells at 24 to 96 uM after 48 hrs by Western blot analysis; assay type: functional, cell-based
[19] = test system: MDA-MB-231; test: Cell cycle arrest in human MDA-MB-231 cells assessed as increase in accumulation at G2/M phase at 48 uM after 48 hrs by propidium iodide staining based flow cytometric method relative to control; assay type: functional
[20] = test system: MDA-MB-231; test: Antiproliferative activity against human MDA-MB-231 cells after 48 hrs by CCK8 assay; assay type: functional, cell-based; details: MDA-MB-231, 48 h
[21] = test system: K562; test: Antiproliferative activity against human K562 cells after 48 hrs by CCK8 assay; assay type: functional, cell-based; details: K562, 48 h
[22] = test system: MDA-MB-231; test: Induction of apoptosis in human MDA-MB-231 cells assessed as viable cells at 48 uM after 48 hrs by Annexin-V/FITC/PI staining based flow cytometry (reference value: 88.78 %); assay type: functional; details: MDA-MB-231, 48 h, read-out: Activity
[23] = test system: HepG2; test: Antiproliferative activity against human HepG2 cells after 48 hrs by CCK8 assay; assay type: functional, cell-based; details: HepG2, 48 h
[24] = test system: MDA-MB-231; test: Decrease in caspase-9 level in human MDA-MB-231 cells at 24 to 96 uM after 48 hrs by Western blot analysis; assay type: functional, cell-based
[25] = test system: MDA-MB-231; test: Induction of apoptosis in human MDA-MB-231 cells assessed as early apoptotic cells at 96 uM after 48 hrs by Annexin-V/FITC/PI staining based flow cytometry (reference value: 0.03 %); assay type: functional

Cc1ccc2c(=O)c3cccc(CC(=O)O)c3oc2c1C [VADIMEZAN]
Activity [1]: 14.93% | Activity [2]: Active | Activity [3]: Dose-dependent effect | Activity [4]: Active | Activity [5]: 17.03% | Activity [6]: 12.09% | Activity [7]: 2.22% | IC50 [8]: 39.5 µM | Activity [9]: 0.53% | viability at 96 µM [10]: 58.8% | Activity [11]: Active | Activity [12]: 14.88% | Activity [13]: 6.65% | viability at 24 µM [14]: 80.7% | Activity [15]: Active | IC50 [16]: 54.4 µM | Activity [17]: 21.83% | Activity [18]: Active | Activity [19]: 25% | IC50 [20]: 48.4 µM | IC50 [21]: 57.4 µM | viability at 48 µM [22]: 65.9% | IC50 [23]: 100 µM | Activity [24]: Active | Activity [25]: 4.48%
